Measurements taken from US10611778B2, “Fused bicyclic inhibitors of menin-MLL interaction” (Janssen Pharmaceutica NV, priority 2016, dated 2020).
Several values for one entry are separate records, joined by “and”; a condition that tells them apart may be missing. Identical values can stand only once. Like-named read-outs stand apart in the source and are kept apart here.

How the values were obtained:
[1] = target: T1, Menin/MLL (terbium chelate-labeled menin, FITC-MBM1 peptide) (Homo sapiens, UniProt O00255, T541A); assay: Menin/MLL homogenous time-resolved fluorescence (HTRF) assay; assay type: binding
T1 construct: Menin (a.a. 1-610-6×his tag) was labeled with terbium cryptate as follows
T1 sequence (O00255 with tags, fused parts or gaps T541A): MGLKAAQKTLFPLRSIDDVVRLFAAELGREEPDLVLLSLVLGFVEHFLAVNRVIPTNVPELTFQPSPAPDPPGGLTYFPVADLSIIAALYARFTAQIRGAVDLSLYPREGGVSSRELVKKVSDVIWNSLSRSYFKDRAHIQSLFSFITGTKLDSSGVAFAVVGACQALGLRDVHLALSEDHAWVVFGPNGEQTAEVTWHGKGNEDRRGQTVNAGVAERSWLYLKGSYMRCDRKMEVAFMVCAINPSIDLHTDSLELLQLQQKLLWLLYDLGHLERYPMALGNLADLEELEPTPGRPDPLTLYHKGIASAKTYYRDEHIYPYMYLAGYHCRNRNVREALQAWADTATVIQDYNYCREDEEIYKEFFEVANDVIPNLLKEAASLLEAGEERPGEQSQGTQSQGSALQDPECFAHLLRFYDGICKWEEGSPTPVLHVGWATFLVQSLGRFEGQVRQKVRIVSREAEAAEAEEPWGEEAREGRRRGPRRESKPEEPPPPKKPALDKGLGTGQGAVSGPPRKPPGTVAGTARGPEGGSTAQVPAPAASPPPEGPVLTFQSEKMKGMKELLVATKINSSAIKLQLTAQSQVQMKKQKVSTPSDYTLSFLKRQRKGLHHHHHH
Procedure, shortened: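 Compound preincubated 5 min with terbium-cryptate-labeled menin (aa 1-610, His-tagged; 100 pM final), then 75 nM FITC-MBM1 peptide added, 15 min at ambient temperature; 0.5% DMSO, Tris pH 7.5 buffer. HTRF ratio 520/490 nm; % inhibition vs saturating competitor, IC50 from 11-point three-fold titration from 31 μM.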

MOLM14 = assay: Proliferation assay (spheroid assay) MOLM14; assay type: cell-based, human
Procedure, shortened: (§1)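 Cells were grown as spheroids in ultra-low attachment round-bottom wells with compound (0.3% DMSO) for 8 d at 37 °C, imaged every 4 h, with confluence as spheroid size. AUC of confluence versus time (t=0 baseline) was expressed as % of DMSO control, and absolute IC50 came from a least-squares nonlinear fit.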

MV-4-11 = assay: Proliferation assay (spheroid assay) MV-4-11; assay type: cell-based, human
Procedure, shortened: as §1

[2] = averaged values over all measurements, read-out: Menin HTRF assay (IC50)
[3] = Homo sapiens, MOLM-14, MOLM14, averaged values over all measurements, read-out: Spheroid assay MOLM14 (IC50)
[4] = Homo sapiens, MV4-11, MV-4-11, averaged values over all measurements, read-out: Spheroid assay MV-4-11 (IC50)

| SMILES | IC50 [1, 2] [nM] | IC50 (MOLM14; [3]) [µM] | IC50 (MV-4-11; [4]) [µM] | IC50 ([1]; individual measurements (not averaged), read-out: (3) Menin HTRF assay (IC50 (nM))) [nM] | IC50 (MOLM14; MOLM14, 8 d, individual measurements (not averaged), read-out: (2) Spheroid assay MOLM14 (IC50 (μM))) | IC50 (MV-4-11; Homo sapiens, MV4-11, 192 h, MV-4-11, 8 d, individual measurements (not averaged), read-out: (2) Spheroid assay MV-4-11 (IC50 (μM))) [µM] | IC50 (MV-4-11; MV-4-11, 8 d, individual measurements (not averaged), read-out: (2) Spheroid assay MV-4-11 (IC50 (μM))) [µM] |
| --- | --- | --- | --- | --- | --- | --- | --- |
| FC(F)(F)Cc1cc2c(N3CCC4C(CCN4Cc4ccccc4)C3)ncnc2s1 (stereo not shown) [Compound 1] | 113 | 4.4 | 1.5 |  |  |  |  |
| FC(F)(F)Cc1cc2c(N3CC[C@H]4[C@H](CCN4Cc4ccc[nH]4)C3)ncnc2s1 (single isomer, unassigned) [Compound 8] |  |  |  | 48 | 5.7 µM and > 15 µM | 2.1 | 2.3 |
| FC(F)(F)Cc1cc2c(N3CCC4C3CCN4Cc3ccccc3)ncnc2s1 (stereo not shown) [Compound 2] | 797 | 9.8 | 7.3 |  |  |  |  |
| Fc1ccccc1CN1CC[C@H]2CN(c3ncnc4sc(CC(F)(F)F)cc34)CC[C@H]21 (single isomer, unassigned) [Compound 6] | 476 | 3.3 | 1.4 |  |  |  |  |
